Results as given in patent publication US10206937B2, “Boronic acid derivatives and therapeutic uses thereof” (Qpex Biopharma, Inc., priority 2014, dated 2019).

Legend:
[1] = target: T1, VIM-1 (Pseudomonas aeruginosa, UniProt A0A0F7KYQ8); experiment: biochemical; details: cleavage of nitrocefin (200 uM) by VIM-1 supernatant
T1 construct: made in house; host or cells: ECM6711 strain carrying pUCP24-VIM-1 plasmid; culture supernatant used unpurified

[2] = target: T2, NDM-1 (Klebsiella pneumoniae, UniProt C7C422); experiment: biochemical
[3] = target: OXA-48 (Klebsiella pneumoniae, UniProt Q6XEC0); experiment: Inhibition of purified class D carbapenemase OXA-48 (Ki, carbapenem substrates); assay type: biochemical; details: purified OXA-48, substrate biapenem; read-out: Ki OXA-48, Biapenem
[4] = target: T3, purified class A, C and D enzymes (UniProt Q48434); assay type: biochemical; details: read-out: Ki (CMY-2, NCF); purified CMY-2; nitrocefin reporter substrate
T3 construct: rows headed: Ki (CMY-2, NCF); other: purified CMY-2; nitrocefin reporter substrate

[5] = target: T4, purified class A, C and D enzymes (UniProt P0AD64, L31Q/G234S/E235K, species not given); assay type: biochemical; details: read-out: Ki (SHV-12, NCF); purified SHV-12; nitrocefin reporter substrate
T4 construct: Ki (SHV-12, NCF); other: purified SHV-12; nitrocefin reporter substrate
T4 sequence (P0AD64 1-286 L31Q/G234S/E235K): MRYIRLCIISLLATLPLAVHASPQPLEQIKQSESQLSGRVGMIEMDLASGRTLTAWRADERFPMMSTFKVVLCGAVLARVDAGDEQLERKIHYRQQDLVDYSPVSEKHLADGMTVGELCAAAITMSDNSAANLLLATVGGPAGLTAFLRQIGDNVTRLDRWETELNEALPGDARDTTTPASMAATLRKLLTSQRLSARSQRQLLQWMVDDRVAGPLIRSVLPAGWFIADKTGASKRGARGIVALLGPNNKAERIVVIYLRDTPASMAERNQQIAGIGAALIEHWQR

[6] = target: T5, purified class A, C and D enzymes (UniProt Q6XEC0); assay type: biochemical; details: read-out: Ki (OXA-48, NCF); purified OXA-48; nitrocefin reporter substrate
T5 construct: rows headed: Ki (OXA-48, NCF); other: purified OXA-48; nitrocefin reporter substrate

[7] = target: T6, purified class A, C and D enzymes (UniProt Q9F663); assay type: biochemical; details: read-out: Ki (KPC-2, NCF); purified KPC-2; nitrocefin reporter substrate
T6 construct: rows headed: Ki (KPC-2, NCF); other: purified KPC-2; nitrocefin reporter substrate

[8] = target: T2, NDM-1; experiment: Inhibition of purified class B carbapenemase NDM-1 (Ki, imipenem substrate); assay type: biochemical; details: NDM-1, substrate imipenem; read-out: Ki NDM-1, Imipenem
[9] = tested on: KP1064 (KPC-2, SHV-11, TEM-1); experiment: Carbapenem potentiation against clinical isolate (MIC); assay type: cell-based, Klebsiella pneumoniae; details: antibiotic alone
[10] = tested on: KP1054 (VIM-1, SHV-11); experiment: as above; assay type: cell-based, Klebsiella pneumoniae; details: antibiotic alone
[11] = tested on: KP1086 (TEM, SHV, CTX-M-15, OXA-48); experiment: as above; assay type: cell-based, Klebsiella pneumoniae; details: antibiotic alone
[12] = tested on: KP1074 (KPC-3, SHV-11, TEM); experiment: as above; assay type: cell-based, Klebsiella pneumoniae; details: antibiotic alone
[13] = tested on: KP1014 (VIM-1); experiment: as above; assay type: cell-based, Klebsiella pneumoniae; details: antibiotic alone
[14] = tested on: KP1081 (NDM-1, TEM-1, SHV-11, CMY-6, CTX-M-15); experiment: as above; assay type: cell-based; details: antibiotic alone
[15] = tested on: AB1144 (NDM-1); experiment: as above; assay type: cell-based, Acinetobacter baumannii; details: AB1144; antibiotic alone
[16] = tested on: KP1004 (KPC-2, TEM-1, SHV-11); experiment: as above; assay type: cell-based, Klebsiella pneumoniae; details: antibiotic alone
[17] = tested on: KP1087 (KPC-2, CTX-M-15, SHV-11, TEM-1); experiment: as above; assay type: cell-based; details: antibiotic alone
[18] = tested on: EC1064 (NDM-1, CMY-6, CTX-M-15); experiment: as above; assay type: cell-based, Escherichia coli; details: antibiotic alone
[19] = tested on: KP1084 (KPC-3, SHV-11, TEM-1); experiment: as above; assay type: cell-based, Klebsiella pneumoniae; details: antibiotic alone
[20] = tested on: EA1019 (SHV-5, VIM-1); experiment: as above; assay type: cell-based, Enterobacter aerogenes; details: EA1019; antibiotic alone
[21] = cleavage of imipenem (100 uM) by NDM-1, read-out: Ki, Imipenem
[22] = cleavage of tebipenem (100 uM) by NDM-1, read-out: Ki, Tebipenem
[23] = cleavage of biapenem (100 uM) by NDM-1, read-out: Ki, Biapenem

T2 sequence (C7C422 29-270, looked up, species assumed): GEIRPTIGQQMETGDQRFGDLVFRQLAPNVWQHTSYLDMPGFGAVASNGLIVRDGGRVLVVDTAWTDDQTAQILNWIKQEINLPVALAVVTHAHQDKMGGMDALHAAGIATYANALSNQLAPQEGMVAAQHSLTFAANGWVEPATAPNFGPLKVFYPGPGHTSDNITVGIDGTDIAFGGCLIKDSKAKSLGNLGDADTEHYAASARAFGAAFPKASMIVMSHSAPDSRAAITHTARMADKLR
Sequence of OXA-48 (Q6XEC0 23-265, looked up): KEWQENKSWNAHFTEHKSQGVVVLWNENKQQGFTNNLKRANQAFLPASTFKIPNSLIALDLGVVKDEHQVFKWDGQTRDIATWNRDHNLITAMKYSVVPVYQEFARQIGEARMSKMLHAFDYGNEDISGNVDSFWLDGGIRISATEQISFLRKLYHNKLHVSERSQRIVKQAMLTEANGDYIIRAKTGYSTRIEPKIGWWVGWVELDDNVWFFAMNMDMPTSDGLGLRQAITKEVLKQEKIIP

SMILES | IC50 [1] | Ki [2, 21] | Ki [2, 22] | Ki [3] | Ki [4] | Ki [5] | Ki [6] | Ki [7] | Ki [8] | Ki [2, 23] | other results
O=C(O)c1cccc2c1OB(O)[C@@H](Sc1nnc[nH]1)C2 [Compound 2, (R)-3-(4H-1,2,4-triazol-3-ylthio)-2-hydroxy-3,4-dihydro-2H-benzo[e][1,2]oxaborinine-8-carboxylic acid] | < 1000 nM | < 10 nM | 10 to 100 nM | 10 to 100 nM | 100 to 1000 nM | < 100 nM | < 100 nM | 100 to 1000 nM | < 10 nM |  | 
NC(=O)CS[C@H]1Cc2cccc(C(=O)O)c2OB1O [Compound 3, (R)-3-(2-amino-2-oxoethylthio)-2-hydroxy-3,4-dihydro-2H-benzo[e][1,2]oxaborinine-8-carboxylic acid] |  | > 100 nM | > 100 nM | < 10 nM | < 100 nM | 100 to 1000 nM | < 100 nM | < 100 nM | > 100 nM | > 100 nM | 
NC(=O)CCS[C@H]1Cc2cccc(C(=O)O)c2OB1O [Compound 9, (R)-3-(3-amino-3-oxopropylthio)-2-hydroxy-3,4-dihydro-2H-benzo[e][1,2]oxaborinine-8-carboxylic acid] | < 1000 nM | > 100 nM |  | 10 to 100 nM | < 100 nM | 100 to 1000 nM | < 100 nM | < 100 nM | > 100 nM |  | 
Cn1cnnc1S[C@H]1Cc2cccc(C(=O)O)c2OB1O [Compound 15, (R)-2-hydroxy-3-(4-methyl-4H-1,2,4-triazol-3-ylthio)-3,4-dihydro-2H-benzo[e][1,2]oxaborinine-8-carboxylic acid] | < 1000 nM | 10 to 100 nM |  | < 10 nM | < 100 nM | < 100 nM | < 100 nM | 100 to 1000 nM |  | 10 to 100 nM | Ki ([2]; cleavage of meropenem (100 uM) by NDM-1, read-out: Ki, Meropenem): 10 to 100 nM
C[C@@H](O)[C@H]1C(=O)N2C(C(=O)O)=C(S[C@@H]3CN[C@H](CNS(N)(=O)=O)C3)[C@H](C)[C@H]12 [Doripenem] |  |  |  |  |  |  |  |  |  |  | Carbapenem MIC Alone [9]: Z (MIC of greater than 10 μg/mL); Carbapenem MIC Alone [10]: Z (MIC of greater than 10 μg/mL); Carbapenem MIC Alone [11]: Z (MIC of greater than 10 μg/mL); Carbapenem MIC Alone [12]: Z (MIC of greater than 10 μg/mL); Carbapenem MIC Alone [13]: Z (MIC of greater than 10 μg/mL); Carbapenem MIC Alone [14]: Z (MIC of greater than 10 μg/mL); Carbapenem MIC Alone [15]: Z (MIC of greater than 10 μg/mL); Carbapenem MIC Alone [16]: Y (MIC of 1 μg/mL to 10 μg/mL); Carbapenem MIC Alone [17]: Z (MIC of greater than 10 μg/mL); Carbapenem MIC Alone [18]: Z (MIC of greater than 10 μg/mL); Carbapenem MIC Alone [19]: Z (MIC of greater than 10 μg/mL); Carbapenem MIC Alone [20]: Z (MIC of greater than 10 μg/mL)
